Laboratory results from paper doi:10.1101/2023.07.11.548539v1, “A side-by-side comparison of peptide-delivered antisense antibiotics employing different nucleotide mimics” (bioRxiv, 2023).
Oligonucleotides are written 5' to 3', each unit as a sugar letter and its base; * is a phosphorothioate linkage, no mark a phosphodiester; rarer units and linkages stand in square brackets, end groups in braces. Plain capitals give the bases only. d = 2'-deoxy (DNA)

How the values were obtained:
[1] = tested on: acpP mRNA; experiment: RNA-seq, target mRNA depletion; format: cell-based, Salmonella enterica serovar Typhimurium strain SL1344; set-up: key to acpP depletion (RNA-seq): -: Effect strength is represented by additional (+) signs.; Effect strength is represented by additional (+) signs.; ++: Effect strength is represented by additional (+) signs.; +++: Effect strength is represented by additional (+) signs; settings: for acpP depletion (RNA-seq): summary grade, ASO conjugated to the carrier peptide; for acpP mRNA depletion (in words): 5 µM KFF-ASO conjugate, 15 min, ~10^6 cfu/ml
Experimental: RNA isolation was performed using previously published protocols ([30],[31]). Bacterial overnight cultures were diluted 1:100 in fresh MHB and grown to OD600 0.5. The cultures were diluted to approximately 10^6 cfu/ml in non-cation-adjusted MHB. Afterwards, an aliquot of the bacterial solution was transferred into 5 ml low-binding tubes (LABsolute) containing the ASOs solution (adjusted such that the final concentration was 5 μM for all tested compounds). As a negative control, cells were treated with the respective volume of sterile nuclease-free water, which was used as solvent for the ASOs. After incubating the samples for 15 min at 37 °C, RNAprotect Bacteria (Qiagen) was added according to the manufacturer’s instructions. Following a 10-min incubation, cells were pelleted at 4 °C and 21,100 × g for 20 min. The supernatant was discarded and pellets were either directly used or stored at –20°C (<1 day) for subsequent bacterial RNA isolation.
Total RNA was purified from bacterial pellets using the miRNeasy Mini kit (Qiagen) according to protocol #3 described in ([30]). Briefly, cells were resuspended in 0.5 mg/ml lysozyme (Roth) in TE buffer (pH 8.0) and incubated for 5 min. Afterwards, RLT buffer supplemented with β-mercaptoethanol, and ethanol were added according to the manufacturer’s instructions. After sample loading, column wash-steps were performed according to the manual. RNA concentration was measured with a NanoDrop spectrophotometer.
For transcriptomic analyses, RNA samples were processed and subjected to RNA-seq at Core Unit SysMed (University of Würzburg, Germany). Sequencing was run using a previously published protocol ([31]). Briefly, RNA quality was checked using a 2100 Bioanalyzer with the RNA 6000 Pico/ Nano kit (Agilent Technologies). RNA samples were DNase-treated using DNAse I kit (Thermo Fisher), followed by ribosomal RNA depletion using Lexogen’s RiboCop META rRNA Depletion Kit protocol according to manufacturer’s recommendation. Subsequently, cDNA libraries suitable for sequencing were prepared using CORALL Total RNA-Seq Library Prep protocol (Lexogen) according to manufacturer’s recommendation with 14–25 PCR cycles. Library quality was checked using a 2100 Bioanalyzer with the DNA High Sensitivity kit (Agilent Technologies). Sequencing of pooled libraries, spiked with 5% PhiX control library, was performed at 10 million reads/sample in single-end mode with 75 nt read length on the NextSeq 500 platform (Illumina) using High output sequencing kits. Demultiplexed FASTQ files were generated with bcl2fastq2 v2.20.0.422 (Illumina).
RNA-seq data analysis was performed similarly to our previous analysis of PNA activity in S. enterica ([30]). Briefly, adapters and low-quality bases (Phred quality score <10) of raw reads were trimmed using BBduk. Then the RNA-seq reads were mapped to the S. enterica serovar Typhimurium reference genome and the three plasmids pSLT SL1344, pCol1B9 SL1344, and pRSF1010 SL1344 ([37]) using BBMap (v38.18) and genomic features were assigned using the featureCounts command of the Subread (2.0.1) package ([38]). For the coverage plots in Figure 8, the bamCoverage (v3.3.2) method of the deepTools platform was applied ([39]).
Downstream RNA-seq analysis was performed using packages from the R/Bioconductor project. Raw read counts of all conditions were imported into edgeR (v3.34.1) ([40]) and analysed for differential expression. To filter low-count reads, features with less than 1.38 counts per million (CPM) in at least 5 libraries were ignored for further analysis. The cutoff of 1.38 CPM was set to 10/L, with L being the minimum library size across all samples in millions, as described in ([41]). Libraries were normalized using edgeR’s trimmed mean of M values (TMM) normalization ([40]). The glmFit function was applied to estimate quasi-likelihood dispersions and contrasts for differential expression analysis were tested using the glmQLTest function. […]

[2] = tested on: Salmonella; experiment: Salmonella growth assay; format: cell-based, Salmonella enterica serovar Typhimurium strain SL1344; set-up: key to Antibacterial activity: -: Effect strength is represented by additional (+) signs.; Effect strength is represented by additional (+) signs.; ++: Effect strength is represented by additional (+) signs.; +++: Effect strength is represented by additional (+) signs; settings: for Effect on Salmonella growth (in words): KFF-ASO conjugates or unconjugated peptide, 24 h growth kinetics, OD600, MHB, 37 °C, up to 10 µM; for Antibacterial activity: summary grade, ASO conjugated to the carrier peptide
Experimental: An overnight bacterial cell culture was diluted 1:100 in fresh MHB and grown to OD600 0.5. The obtained culture was diluted to approximately 10^5 cfu/ml in non-cation-adjusted MHB. Subsequently, 190 µl bacterial solution was dispensed into a 96-well plate (Thermo Fisher Scientific) along with 10 µl of a 200 µM solution of the ASOs. Growth was monitored by measuring the OD at 600 nm every 20 min in a Synergy H1 plate reader (Biotek) with continuous double-orbital shaking (237 cpm) at 37 °C for 24 h.

Substance | acpP depletion (RNA-seq) [1] | Effect on Salmonella growth (in words) [2] | Antibacterial activity [2] | acpP mRNA depletion (in words) [1]
DNA-PTO: 10mer phosphorothioate-modified DNA antisense oligomer, sequence CTCATACTCT, targeting acpP (antisense dC*dT*dC*dA*dT*dA*dC*dT*dC*dT) | - | slight growth retardation was observed at 5 µM and 10 µM | - | 
LNA: 10mer 2'-4'-locked RNA antisense oligomer, sequence CTCATACTCT, targeting acpP (all LNA, backbone and methylation of C not given here) | - | slight growth retardation was observed at 5 µM and 10 µM | - | slight effect
PMO: 10mer phosphorodiamidate morpholino antisense oligomer, sequence CTCATACTCT, targeting acpP (all phosphorodiamidate morpholino (PMO)) |  |  | + | 
PNA: 10mer peptide nucleic acid antisense oligomer, sequence CTCATACTCT, targeting acpP (all peptide nucleic acid (PNA)) |  |  | ++ | reduced the levels of acpP mRNA
RNA-F: 10mer 2'-fluorinated RNA antisense oligomer, sequence CTCATACTCT, targeting acpP (all 2'-fluoro, backbone and T or U not given here) | - | slight growth retardation was observed at 5 µM and 10 µM | - | 
RNA-MOE: 10mer 2'-methoxyethylated RNA antisense oligomer, sequence CTCATACTCT, targeting acpP (all 2'-MOE, backbone and methylation of C not given here) | - | slight growth retardation was observed at 5 µM and 10 µM | - | 
RNA-OMe: 10mer 2'-methylated RNA antisense oligomer, sequence CTCATACTCT, targeting acpP (all 2'-O-methyl, backbone and T or U not given here) | - | no activity at all | - | 
